The assay deals with Human FXIIa (Homo sapiens (Human), UniProt P00748). The assay can be described thus: Factor XIIa (FXIIa) inhibitory activity, chromogenic substrate (Pefachrome XIIa) cleavage. Type of assay: biochemical. The settings on record: 10 min pre-incubation, Pefachrome XIIa 400 μM. How it is done:
Factor XIIa (FXIIa) Inhibitory Activity:
In a 96-well clear bottom plate, 80 μl of assay buffer was added to each well. Assay buffer consists of 0.5× Hank's Balanced Salt Solution (Invitrogen), buffered with 25 mM HEPES pH 7.4 (Invitrogen) and 0.5× Tris-buffered saline with Tween-20 0.05% (Santa Cruz Biotechnology). Test compounds were first dissolved in DMSO (Sigma) and then 4 μl were added to test wells containing assay buffer. Serial dilutions using an automated multi-channel pipette were used to generate a concentration range of approximately 1-100 μM. Human FXIIa (Enzyme Research Labs) was diluted in assay buffer to a final concentration of 12.5 nM. 80 μl of this enzyme solution was added to the assay wells. The enzyme/compound mixtures were incubated for 10 minutes at room temperature. Chromogenic substrate (Pefachrome XIIa; Enzyme Research Labs) was added to assay wells at a final concentration of 400 μM. The assay plate was spun for 1 minute at 1500 g and then read at 37° C. in a SpectraMax M2 plate reader (λ=405 nm). Activity was quantified as the rate of change in absorbance, which corresponds to the rate of substrate cleavage. IC50 values were determined as the concentration of inhibitor that produced 50% of the rate of change of control wells without any inhibitor. For compounds with activity <1 μM, the assay was repeated with a lower concentration range, typically from 10-1000 nM.

Molecules are shown by their SMILES.

Human FXIIa, sequence (P00748 373-615): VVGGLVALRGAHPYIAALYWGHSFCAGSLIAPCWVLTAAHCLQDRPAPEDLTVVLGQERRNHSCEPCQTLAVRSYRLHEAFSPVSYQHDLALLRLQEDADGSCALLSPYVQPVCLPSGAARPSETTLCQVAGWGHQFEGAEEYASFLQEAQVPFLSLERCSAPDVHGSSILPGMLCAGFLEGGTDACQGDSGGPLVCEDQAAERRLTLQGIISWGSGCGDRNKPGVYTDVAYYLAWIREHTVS
Human FXIIa, sequence (P00748 20-372 partner): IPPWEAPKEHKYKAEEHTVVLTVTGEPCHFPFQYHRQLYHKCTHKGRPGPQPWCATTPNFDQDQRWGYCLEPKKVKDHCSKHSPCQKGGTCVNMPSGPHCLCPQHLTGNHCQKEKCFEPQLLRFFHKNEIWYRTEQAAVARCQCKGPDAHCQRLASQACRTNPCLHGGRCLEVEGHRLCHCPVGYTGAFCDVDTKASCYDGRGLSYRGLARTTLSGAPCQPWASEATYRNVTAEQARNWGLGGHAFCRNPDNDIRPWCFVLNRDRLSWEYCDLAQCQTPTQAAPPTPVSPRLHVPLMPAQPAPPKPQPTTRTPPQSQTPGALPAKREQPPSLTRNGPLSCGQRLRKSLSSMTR

Regarding `Cc1cccc2c1NCC[C@H]2C(=O)n1nc2c(c1N)CCNC2` (single isomer, unassigned) [Example 177, (R*)-(3-amino-4,5,6,7-tetrahydro-pyrazolo[3,4-c]pyridin-2-yl)(8-methyl-1,2,3,4-tetrahydro-quinolin-4-yl)methanone], the IC50 (commonly the midpoint of a concentration-inhibition curve) was determined as 30 µM.

`Cc1cccc2c1NCC[C@@H]2C(=O)n1nc2c(c1N)CCN(S(=O)(=O)N(C)C)C2` (single isomer, unassigned) [Example 180, (S*)-3-amino-N,N-dimethyl-2-(8-methyl-1,2,3,4-tetrahydro-quinoline-4-carbonyl)-4,5-dihydro-2H-pyrazolo[3,4-c]pyridine-6(7H)-sulfonamide]: the IC50 was 0.04 µM.

Turning to `Cc1cccc2c1NCC[C@@H]2C(=O)n1nc2c(c1N)CCN(S(=O)(=O)C1CCC1)C2` (single isomer, unassigned) [Example 182, (S*)-(3-amino-6-(cyclobutyl-sulfonyl)-4,5,6,7-tetrahydro-pyrazolo[3,4-c]pyridin-2-yl)(8-methyl-1,2,3,4-tetrahydro-quinolin-4-yl)methanone], the IC50 is 0.04 µM.

Regarding `Cc1cccc2c1NCC[C@H]2C(=O)n1nc2c(c1N)CCN(S(=O)(=O)C1CCC1)C2` (single isomer, unassigned) [Example 183, (R*)-(3-amino-6-(cyclobutyl-sulfonyl)-4,5,6,7-tetrahydro-pyrazolo[3,4-c]pyridin-2-yl)(8-methyl-1,2,3,4-tetrahydro-quinolin-4-yl)methanone], 35 µM corresponded to half-maximal inhibition (IC50).

`Cc1cccc2c1NCC[C@@H]2C(=O)n1nc2c(c1N)CCN(S(=O)(=O)C1COC1)C2` (single isomer, unassigned) [Example 185, (S*)-(3-amino-6-(oxetan-3-ylsulfonyl)-4,5,6,7-tetrahydro-pyrazolo[3,4-c]pyridin-2-yl)(8-methyl-1,2,3,4-tetrahydro-quinolin-4-yl)methanone]: it took 0.2 µM to reach half-maximal inhibition (IC50).

`Cc1cccc2c1NCC[C@H]2C(=O)n1nc2c(c1N)CCN(S(=O)(=O)C1COC1)C2` (single isomer, unassigned) [Example 186, (R*)-(3-amino-6-(oxetan-3-ylsulfonyl)-4,5,6,7-tetrahydro-pyrazolo[3,4-c]pyridin-2-yl)(8-methyl-1,2,3,4-tetrahydro-quinolin-4-yl)methanone] registered an IC50 of 40 µM.

As for `Cc1cccc2c1NCC[C@@H]2C(=O)n1nc2c(c1N)COCC2` (single isomer, unassigned) [Example 190, (S*)-(3-amino-6,7-dihydropyrano[4,3-c]pyrazol-2(4H)-yl)(8-methyl-1,2,3,4-tetrahydro-quinolin-4-yl)methanone], 0.05 µM corresponded to half-maximal inhibition (IC50).

As for `Cc1cc(F)cc2c1NCC[C@H]2C(=O)n1nc2c(c1N)COCC2` (single isomer, unassigned) [Example 192, (R*)-(3-amino-6,7-dihydropyrano[4,3-c]pyrazol-2(4H)-yl)(6-fluoro-8-methyl-1,2,3,4-tetrahydro-quinolin-4-yl)methanone], the IC50 came out at 12.5 µM.

Regarding `Cc1cc(F)cc2c1NCC[C@@H]2C(=O)n1nc2c(c1N)COCC2` (single isomer, unassigned) [Example 193, (S*)-(3-amino-6,7-dihydropyrano[4,3-c]pyrazol-2(4H)-yl)(6-fluoro-8-methyl-1,2,3,4-tetrahydro-quinolin-4-yl)methanone], the IC50 worked out at 0.04 µM.

With `Nc1c2c(nn1C(=O)[C@@H]1CCNc3ccc(F)cc31)COCC2` (single isomer, unassigned) [Example 197, (R*)-(3-amino-4,5-dihydropyrano[3,4-c]pyrazol-2(7H)-yl)(6-fluoro-1,2,3,4-tetrahydro-quinolin-4-yl)methanone], the IC50 turned out to be 40 µM.

Take `Cc1cccc2c1NCC[C@H]2C(=O)n1nc2c(c1N)CCOC2` (single isomer, unassigned) [Example 199, (R*)-(3-amino-4,5-dihydropyrano[3,4-c]pyrazol-2(7H)-yl)(8-methyl-1,2,3,4-tetrahydro-quinolin-4-yl)methanone]: the IC50 turned out to be 80 µM.

In turn, `Nc1c2c(nn1C(=O)[C@@H]1CCNc3c(Cl)cccc31)COCC2` (single isomer, unassigned) [Example 201, (R*)-(3-amino-4,5-dihydropyrano[3,4-c]pyrazol-2(7H)-yl)(8-chloro-1,2,3,4-tetrahydro-quinolin-4-yl)methanone] showed an IC50 of 16 µM.

Regarding `Nc1c2c(nn1C(=O)[C@H]1CCNc3c(Cl)cccc31)COCC2` (single isomer, unassigned) [Example 202, (S*)-(3-amino-4,5-dihydropyrano[3,4-c]pyrazol-2(7H)-yl)(8-chloro-1,2,3,4-tetrahydro-quinolin-4-yl)methanone], the IC50 turned out to be 0.09 µM.

Molecule `Cc1cccc2c1NCC[C@@H]2C(=O)n1nc2c(c1N)CCN(CCO)C2` (single isomer, unassigned) [Example 204, (S*)-(3-amino-6-(2-hydroxyethyl)-4,5,6,7-tetrahydro-2H-pyrazolo[3,4-c]pyridin-2-yl)(8-methyl-1,2,3,4-tetrahydro-quinolin-4-yl)methanone] registered an IC50 of 0.04 µM.

The molecule `Cc1cccc2c1NCC[C@H]2C(=O)n1nc2c(c1N)CCN(CCO)C2` (single isomer, unassigned) [Example 205, (R*)-(3-amino-6-(2-hydroxyethyl)-4,5,6,7-tetrahydro-2H-pyrazolo[3,4-c]pyridin-2-yl)(8-methyl-1,2,3,4-tetrahydro-quinolin-4-yl)methanone] returned an IC50 above 25 µM.

`Cc1cc2c(C(=O)n3nc4c(c3N)CN(C(=O)OC(C)(C)C)CC4)cccc2[nH]1` [Example 1, tert-butyl 3-amino-2-[(2-methyl-1H-indol-4-yl)carbonyl]-4,5,6,7-tetrahydro-2H-pyrazolo[4,3-c]pyridin-5-carboxylate] registered an IC50 of 0.08 µM.

As for `Cc1cc2c(C(=O)n3nc4c(c3N)CNCC4)cccc2[nH]1` [Example 2, (3-amino-4,5,6,7-tetrahydropyrazolo[4,3-c]pyridin-2-yl)(2-methyl-1H-indol-4-yl)methanone], half-maximal inhibition (IC50) was put at 0.06 µM.

In the case of `CCc1cc2c([nH]1)CCCC2C(=O)n1nc(N)c2c1CCN(C(=O)OCc1ccccc1)C2` (stereo not drawn) [Example 5, benzyl 3-amino-1-(2-ethyl-4,5,6,7-tetrahydro-1H-indole-4-carbonyl)-6,7-dihydro-1H-pyrazolo[4,3-c]pyridine-5(4H)-carboxylate], the IC50 is above 40 µM.

For the molecule `Cc1cc2c(C(=O)n3nc(N)c4c3CN(C(=O)OC(C)(C)C)CC4)cccc2[nH]1` [Example 8, tert-butyl 3-amino-1-(2-methyl-1H-indole-4-carbonyl)-4,5-dihydro-1H-pyrazolo[3,4-c]pyridine-6(7H)-carboxylate], the IC50 was determined as 50 µM.

Molecule `Cc1cc2c(C(=O)n3nc4c(c3N)CCN(Cc3ccccc3)C4)cccc2[nH]1` [Example 10, (3-amino-6-benzyl-4,5,6,7-tetrahydropyrazolo[3,4-c]pyridin-2-yl)(2-methyl-1H-indol-4-yl)methanone] had an IC50 of 0.03 µM.

In turn, `Cc1cc2c(C(=O)n3nc(N)c4c3CN(Cc3ccccc3)CC4)cccc2[nH]1` [Example 11, (3-amino-6-benzyl-4,5,6,7-tetrahydropyrazolo[3,4-c]pyridin-1-yl)(2-methyl-1H-indol-4-yl)methanone] returned a concentration for half-maximal inhibition (IC50) of 50 µM.

`Cc1ccc2c(c1)C(C(=O)n1nc(N)c3c1CN(S(C)(=O)=O)CC3)CCN2` (stereo not drawn) [Example 13, (3-amino-6-(methylsulfonyl)-4,5,6,7-tetrahydropyrazolo[3,4-c]pyridin-1-yl)(6-methyl-1,2,3,4-tetrahydroquinolin-4-yl)methanone] gave an IC50 above 90 µM.

The molecule `CS(=O)(=O)N1CCc2c(N)nn(C(=O)C3CCNc4ccc(F)cc43)c2C1` (stereo not drawn) [Example 17, (3-amino-6-(methylsulfonyl)-4,5,6,7-tetrahydropyrazolo[3,4-c]pyridin-1-yl)(6-fluoro-1,2,3,4-tetrahydroquinolin-4-yl)methanone] yielded an IC50 of 30 µM.

Regarding `COc1ccc2c(c1)C(C(=O)n1nc3c(c1N)CCN(S(C)(=O)=O)C3)CCN2` (stereo not drawn) [Example 22, (3-amino-6-(methylsulfonyl)-4,5,6,7-tetrahydropyrazolo[3,4-c]pyridin-2-yl)(6-methoxy-1,2,3,4-tetrahydroquinolin-4-yl)methanone], the IC50 was found to be 1.4 µM.

For the molecule `COc1ccc2c(c1)C(C(=O)n1nc(N)c3c1CN(S(C)(=O)=O)CC3)CCN2` (stereo not drawn) [Example 23, (3-amino-6-(methylsulfonyl)-4,5,6,7-tetrahydropyrazolo[3,4-c]pyridin-1-yl)(6-methoxy-1,2,3,4-tetrahydroquinolin-4-yl)methanone], the IC50 was above 60 µM.

The molecule `Cn1cc2c(c1)C(C(=O)n1nc(N)c3c1CN(S(C)(=O)=O)CC3)CCC2` (stereo not drawn) [Example 27, (3-amino-6-(methylsulfonyl)-4,5,6,7-tetrahydropyrazolo[3,4-c]pyridin-1-yl)(2-methyl-4,5,6,7-tetrahydro-2H-isoindol-4-yl)methanone] returned an IC50 of 75 µM.

Molecule `Nc1nn(C(=O)C2CCNc3ccc(F)cc32)c2c1CCN(c1ccccc1)C2` (stereo not drawn) [Example 29, (3-amino-6-phenyl-4,5,6,7-tetrahydropyrazolo[3,4-c]pyridin-1-yl)(6-fluoro-1,2,3,4-tetrahydroquinolin-4-yl)methanone] showed an IC50 above 60 µM.

These data come from US11312723B2, “Pyranopyrazole and pyrazolopyridine immunomodulators for treatment of autoimmune diseases” (The Rockefeller University, priority 2017, dated 2022).
